From US20060148714A1, “Therapeutic peptide-based constructs” (priority 1999, published 2006)
Values after ≈ are worked out from the molar mass of the structure shown. Where a SMILES comes first, the peptide text is derived from it. [ ]: non-standard residue; d: D form. d1Nal = N[C@H](Cc1cccc2ccccc12)C(=O)O

Key:
[1] = test system: human umbilical vein endothelial cells (HUVEC); assay type: cell-based; details: for IC50: 72 h
Description: Briefly, human umbilical vein endothelial cells (HUVEC) were cultured in EGM-2 medium (Clonetics Corp., San Diego, Calif.), harvested and plated onto a 96-well culture plate. After 24 hours of quiescence, the cells were co-cultured with various peptide-based constricts in the presence of growth factors for 72 hours to test their activity. Cell proliferation was quantitated by tritiated thymidine incorporation into DNA and was expressed in counts per minute (cpm).
Details of the experimental procedures were as follows: HUVEC cells were cultured in EGM-2 media from Clonetics Corp., a subsidiary of BioWhittaker, Inc., San Diego, Calif. [EGM-2 is Endothelial Cell Basal Medium-2 (EMB-2) supplemented with growth factors (hFGF-B, VEGF, IGF-1, hEGF) ascorbic acid, heparin, GA-1000 and 2% FBS), in T75 flasks until confluent (˜4-7 days). Cells were harvested by trypsinizing the cells using 0.025% trypsin/EDTA for 5 minutes. To stop the reaction, 2-5% FBS was added. The cells were centrifuged and washed 3 times using Hank's Balanced Salt Solution (HBSS) or Dulbecco's Phosphate Buffered Saline D-PBS. The pellet was then resuspended in EBM-2 supplemented with 0.1% FBS and GA-1000 was used. The cells were counted and a cell suspension was prepared at 2×10^5/mL in EBM-2 with 0.1% FBS; cells were dispensed into a 96-well flat bottomed culture plate at 0.1 mL/well (total: ˜20,000 cells/well in 0.1% FBS-EBM-2). Incubation continued at 37° C. in 5% CO2 for 20-24 hours. The next day peptide-based constructs were prepared for testing in a 96 well plate. The supernatant was aspirated from the cell-well, replaced with EBM-2 or the testing reagent at 20 μL/well. Then, 180 μL/well of 1.12% FBS-GFS were added to make a final concentration of 1% FBS-GFS in EBM-2. This aspiration and addition was done well-by-well. ^3H-thymidine (100 μCi/mL) was added at 10 μL/well (1 μCi/well, final). Incubation continued at 37° C., 5% CO2 for 72 hours. To harvest the plate, the supernatant was aspirated off from the cell-well and then 75 μL-100 μL/well of 0.025% trypsin-EDTA was added. After incubation for 8-10 minutes at room temperature in the hood, the cells were checked and 100 μL/well of 2-5% FBS-PBS was added to stop the reaction. The plate was then harvested, dried and counted using an Inotech cell harvester (Inotech Biosystems, INB-384, Sample Processing and Filter Counting System, Lansing, Mich.).

[2] = test system: bFGF-induced angiogenesis; assay: In vivo Matrigel angiogenesis assay (hemoglobin content of excised gel); details: 10 μg peptide construct per gel; hemoglobin of gel excised ten days after s.c. injection; C57BL/6J mice
Description: For these experiments, peptide-based constructs according to the invention were assayed for their ability to inhibit heparin-induced angiogenesis in vivo in mice. Basement membrane matrix (Matrigel®, Becton Dickinson Labware, Mountain View, Calif.) was thawed and maintained at 4° C. and angiogenic factors were added to the gel in the liquid state generally as described in Passaniti et al., 1992, Lab. Invest. 67: 519-528. Heparin sodium (Sigma, St. Louis, Mo.) was dissolved in sterile PBS to various concentrations ranging from 1,250-10,000 U/mL, and used in these experiments at 8,000 U/mL. Human recombinant basic fibroblast growth factor (bFGF; Sigma) was reconstituted into 1. % BSA in PBS to 25 μg/mL. A volume of 2.5 μL dissolved heparin solution and 4.0 μL recombinant bFGF were added to 0.5 mL Matrigel® mixture per mouse injection. Peptide-based constructs were added to this Matrigel® mixture at varying concentrations ranging from 0.5 to 50 μg/mL (final concentration) in 10 μL/0.5 mL Matrigel® aliquot per experimental animal. Ten μL sterile PBS was substituted for peptide-based constructs in Matrigel® aliquots injected into control animals.
Female C57BL/6J mice (Jackson Laboratory, Bar Barbor, Me.) at 6-8 weeks of age (maintained under NIH guidelines) were injected subcutaneously down the dorsal midline with 0.5 mL aliquots of Matrigel® prepared as described above. Ten days after injection, the Matrigel® gels were excised and placed in Drabkin's reagent (Sigma). Total protein and hemoglobin content can be determined for the gels stored in Drabkin's reagent after mechanical homogenization of the gels. Hemoglobin concentration was measured using Sigma Procedure #525 and reagents supplied by Sigma (St. Louis, Mo.) to be used with this procedure. If desired, total protein levels are determined using a microplate assay that is commercially embodied in a kit (DC Protein Assay, Bio-Rad, Richmond, Calif.).
Gels to be used for histological staining are formalin-fixed immediately after excision from the animals rather than being placed in Drabkin's reagent. Formalin-fixed gels are embedded in Tissue-Tek O.C.T. compound (Miles, Inc., Elkhart, Ind.) for frozen sectioning. Slides of frozen sections are stained with hematoxylin and eosin (as described by Humason, 1979, Animal Tissue Techniques, 4th Ed. W.H. Feeman & Co., San Francisco, Calif., Ch. 9, pp. 111-131). The effect of peptides are detected by microscopic examination of frozen stained sections for inhibition of angiogenesis relative to Matrigel® gel slices prepared without added peptides. The extent of angiogenesis inhibition is quantitated using the normalized amounts of hemoglobin found in BPI peptide-containing gel slices.
Data are presented as the means of triplicate determinations of hemoglobin concentrations from the excised gel (ISEM) with ten mice per group.

[3] = test system: Factor Xa neutralization by ATIII/heparin complexes; assay: Chromostrate heparin anti-Factor Xa assay (heparin neutralization); assay type: biochemical; details: absorbance at 405 nm
Description: A Chromostrate™ assay was used to determine the effect of peptide-based constructs, including derivatized constructs, and the effect protamine sulfate (as a positive control) on Factor Xa neutralization by ATIII/heparin complexes. The assay was conducted using a Chromostrate™ heparin anti-Factor Xa assay kit (Organon Teknika Corp., Durham, N.C.). Heparin concentration was varied so that a heparin standard curve was generated. The assay measured the potentiating effect of heparin on anti-Xa activity in vitro. Solution containing heparin is incubated in the presence of ATIII with an excess of Factor Xa, forming an ATIII-Heparin-Xa complex. The remaining Xa catalyzes the release of p-nitroaniline (pNA) from the chromogenic substrate. The release of p-nitroaniline is measured at 405 nm. The absorbance obtained in inversely porportional to the concentration of heparin in the sample.
Reagents for the assay are prepared as follows. Heparin, peptide-based constructs and protamine sulfate stocks are made in saline. Stock solutions are approximately 1 mg/mL=1 μg/μL. Factor Xa reagent and substrate reagent are reconstituted with 2.0 mL purified water. Antithrombin III (ATIII) reagent is reconstituted with 1.0 mL purified water. The assay is performed in 96 well microtiter plates. Assay components are added to the microtiter wells as follows: 12.5 μl of heparin (from 0 to 10 U/mL), 25 μl of construct or protamine sulfate, 12.5 μL of ATIII (0.5 PEU/mL), 25 μL of bovine Factor Xa (14 nKat/mL), 25 μL substrate (3 μmoles/mL). The reaction is allowed to proceed for 20 minutes and then 25 μL of 0.1 M acetic acid is added. The color reaction is quantitated on a microplate reader at 405 nm. Constructs that neutralize heparin show an increase in the absorbance at 405 nm. Protamine is used as a positive control and its activity is designated as 100%. The percent (%) heparin neutralization for each peptide construct is calculated relative to the neutralization by protamine (100%), and shown in Table IV.

[4] = test system: E. coli (J5 and 0111 B4), Staphylococcus aureus and Candida albicans; assay: Broth and/or radial diffusion antimicrobial assays; assay type: cell-based
Excerpt: Assays useful for testing a variety of biological activities of BPI protein products, including BPI-derived peptides, are described in co-owned U.S. Pat. Nos. 5,733,872; 5,763,567; 5,652,332; and 5,856,438 and corresponding PCT Publication Nos. WO 94/20532 (PCT/US94/02465) and WO 95/19372 (PCT/US94/10427) and U.S. Pat. No. 5,858,974 and corresponding PCT Publications Nos. WO 96/08509 (PCT/US95/09262) and WO 97/04008 (PCT/US96/03845), incorporated herein by reference. These activities include antimicrobial (including antibacterial and antifungal), LPS binding, LPS neutralization and additional assays of heparin binding as well as heparin neutralization.

[5] = test system: LPS; assay: RAW cell assay of LPS neutralization; assay type: cell-based

Compound: CC(C)C[C@@H](NC(=O)[C@H](N)CCCCN)C(=O)N[C@H](Cc1ccccc1)C(=O)N[C@H](CCCNC(=N)N)C(=O)N[C@H](Cc1cccc2ccccc12)C(=O)N[C@H](CCC(N)=O)C(=O)N[C@H](C)C(=O)N[C@H](CCCCN)C(N)=O [XMP.630, k-l-f-r-(naph-a)-q-a-k] (H-[dK][dL][dF][dR][d1Nal][dQ][dA][dK]-NH2; N-terminus and C-terminus assumed)
- IC50 [1]: >25 µg/mL
- IC50 values, additional assays ([1]; HUVEC proliferation, purified constructs, said to be comparable to Table II (μg/mL)): > 50
- % Inhibition [2]: 49.6%
- Assay A: percent heparin neutralization relative to protamine (100%) [3]: 2.3%
- Assay B: percent heparin neutralization relative to protamine (100%) [3]: 0.5%

Compound: CC(C)C[C@@H](NC(=O)[C@H](N)CCCCN)C(=O)N[C@H](Cc1ccccc1)C(=O)N[C@H](CCCNC(=N)N)C(=O)N[C@H](Cc1cccc2ccccc12)C(=O)N[C@H](CCC(N)=O)C(=O)N[C@H](C)C(=O)N[C@H](CCCCN)C(=O)N[C@H](Cc1cccc2ccccc12)C(=O)N[C@H](CCCCN)C(=O)NCC(N)=O [XMP.627, k-l-f-r-(naph-a)-q-a-k-(naph-a)-k-g] (H-[dK][dL][dF][dR][d1Nal][dQ][dA][dK][d1Nal][dK]G-NH2; N-terminus assumed)
- IC50 [1]: 5.8 ± 0.7 µg/mL (≈ 3.95 µM)
- % Inhibition [2]: 77.6%
- antimicrobial activity [4]: highest antimicrobial activities
- Assay A: percent heparin neutralization relative to protamine (100%) [3]: 98%
- Assay B: percent heparin neutralization relative to protamine (100%) [3]: 62%

Compound: CC(C)C[C@@H](NC(=O)[C@H](N)CCCCN)C(=O)N[C@H](Cc1ccccc1)C(=O)N[C@H](CCCNC(=N)N)C(=O)N[C@H](Cc1cccc2ccccc12)C(=O)N[C@H](CCC(N)=O)C(=O)N[C@H](C)C(=O)N[C@H](CCCCN)C(=O)N[C@H](Cc1cccc2ccccc12)C(N)=O [XMP.629, k-l-f-r-(naph-a)-q-a-k-(naph-a)] (H-[dK][dL][dF][dR][d1Nal][dQ][dA][dK][d1Nal]-NH2; N-terminus assumed)
- LPS neutralization activity [5]: showed activity
- % Inhibition [2]: 30.8%
- antimicrobial activity [4]: highest antimicrobial activities
- Assay A: percent heparin neutralization relative to protamine (100%) [3]: 69%
- Assay B: percent heparin neutralization relative to protamine (100%) [3]: 49%

Compound: CC(C)C[C@@H](NC(=O)[C@H](N)CCCCN)C(=O)N[C@H](Cc1ccccc1)C(=O)N[C@H](CCCNC(=N)N)C(=O)N[C@H](Cc1cccc2ccccc12)C(=O)N[C@H](CCC(N)=O)C(=O)N[C@H](C)C(=O)N[C@H](CCCCN)C(=O)N[C@H](Cc1cccc2ccccc12)C(=O)N[C@H](CCCCN)C(N)=O [XMP.628, k-l-f-r-(naph-a)-q-a-k-(naph-a)-k] (H-[dK][dL][dF][dR][d1Nal][dQ][dA][dK][d1Nal][dK]-NH2)
- LPS neutralization activity [5]: showed activity
- antimicrobial activity [4]: highest antimicrobial activities
- Assay A: percent heparin neutralization relative to protamine (100%) [3]: 107%
- Assay B: percent heparin neutralization relative to protamine (100%) [3]: 68%

Compound: CC(C)C[C@@H](NC(=O)[C@H](N)CCCCN)C(=O)N[C@H](Cc1ccccc1)C(=O)N[C@H](CCCNC(=N)N)C(=O)N[C@H](Cc1cccc2ccccc12)C(=O)N[C@H](CCC(N)=O)C(=O)N[C@H](C)C(=O)N[C@H](CCCCN)C(=O)N[C@H](Cc1cccc2ccccc12)C(=O)N[C@H](CCCCN)C(=O)NCC(=O)N[C@H](CO)C(N)=O [XMP.626, k-l-f-r-(naph-a)-q-a-k-(naph-a)-k-g-s] (H-[dK][dL][dF][dR][d1Nal][dQ][dA][dK][d1Nal][dK]G[dS]-NH2)
- LPS neutralization activity [5]: showed activity
- Assay A: percent heparin neutralization relative to protamine (100%) [3]: 99%
- Assay B: percent heparin neutralization relative to protamine (100%) [3]: 80%

Compound: CC[C@@H](C)[C@@H](NC(=O)[C@@H](CCCCN)NC(=O)[C@H](NC(=O)[C@@H](CO)NC(=O)CNC(=O)[C@@H](CCCCN)NC(=O)[C@@H](Cc1cccc2ccccc12)NC(=O)[C@@H](CCCCN)NC(=O)[C@@H](C)NC(=O)[C@@H](CCC(N)=O)NC(=O)[C@@H](Cc1cccc2ccccc12)NC(=O)[C@@H](CCCNC(=N)N)NC(=O)[C@@H](Cc1ccccc1)NC(=O)[C@@H](CC(C)C)NC(=O)[C@H](N)CCCCN)[C@H](C)CC)C(N)=O [XMP.394, k-l-f-r-(naph-a)-q-a-k-(naph-a)-k-g-s-i-k-i] (H-[dK][dL][dF][dR][d1Nal][dQ][dA][dK][d1Nal][dK]G[dS][dI][dK][dI]-NH2; N-terminus assumed)
- IC50 [1]: 4.3 ± 0.5 µg/mL (≈ 2.25 µM)
- % Inhibition [2]: 54.6%
- Assay A: percent heparin neutralization relative to protamine (100%) [3]: 143%
- Assay B: percent heparin neutralization relative to protamine (100%) [3]: 133%
